# Test results reported in patent publication US20160296644A1, “ANTICANCER DRUG, COMPRISING A COPPER RADIOISOTOPE” (priority 2013, published 2016).
# Tests used:
# amyloid plaques = test: Use against Alzheimer's disease (radiotracer / therapeutic agent)
# Source text: In fact, it is capable of binding to the amyloid plaques, the accumulation whereof within the nerve cells characterises the presence of the pathology, and catalyses its formation process. By crossing the blood-brain barrier, the deposit of the subject drug is suitably identified inside said amyloid plaques, providing a diagnostic feedback beyond all doubts.
# In fact, the drug, by binding to said amyloid plaques, initially stabilises the growth thereof, to then slower it by braking such “drug-plaque” bonds.
# DNA of the cancer cell = test: Laboratory experimental tests of Auger radioactive effect on cancer cells; conditions: dosage 1.5 Bq for each cell
# Method: Said dosage is equal to a 1.5 Bq (Becquerel) for each cell, a quantity such that the therapeutic effectiveness of the drug is carried out through the expression of the toxicity thereof only inside the nucleus, achieving a true target therapy.
# [1] = tested on: solid tumours, neuroendocrine tumours, melanomas, leukaemias and lymphomas; test: Therapeutic effectiveness in cancer pathologies; conditions: solid tumours (pancreas, prostate, brain, breast, ovary, head-neck, oesophagus, stomach, intestines, colon, liver, lung)
structure (smiles),measurement,setting,value
"[64Cu+2].[Cl-].[Cl-] [64CuCl2, copper-64 chloride]",therapeutic agent against neuronal cells affected by the Alzheimer's disease,"amyloid plaques; average dose 3,700 MBq",carries out the function of therapeutic agent
same,radiotracer for the diagnosis of the Alzheimer's disease,amyloid plaques; average dose of 370 MBq,capable of acting as a radiotracer
same,Auger radioactive effect on DNA of the cancer cell,DNA of the cancer cell,capable of destroying the DNA of the cancer cell
same,volume of the tumoural lesions in solid tumours,DNA of the cancer cell,reducing the volume of the tumoural lesions in solid tumours
same,effectiveness as a therapeutic agent for cancer pathologies,[1],effective
